From publication PMC9088311, “Cyclic Thiosulfonates for Thiol-Mediated Uptake: Cascade Exchangers, Transporters, Inhibitors” (JACS Au, 2022)
Like-named read-outs stand apart in the source and are kept apart here.

Legend:
HK cells, transporter 28 = test: HCHT imaging: inhibition of cytosolic delivery of CTO transporter 28; type: cell-based, Human; conditions: inhibitor 1 h; for IC15 / IC50: Homo sapiens; for IC15: read-out: MIC (concentration needed to reach 15% inhibition), transporter 28 5 μM
HeLa Kyoto cells = test: Relative viability (HOE/PI) in HCHT screening
Procedure, shortened: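 HK cells exposed to increasing inhibitor concentrations, then fluorescent transporters at constant concentration, either after inhibitor removal (pre-incubation) or without removal (co-incubation).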

[1] = read-out: IC50 (concentration needed to reach 50% inhibition), transporter 28 5 μM, pre-incubation (P)
[2] = with transporter 28, pre-incubation (P)
[3] = with transporter 31, co-incubation (C)
[4] = transporter 28 5 μM, co-incubation (C)
[5] = with transporter 28, co-incubation (C)

## O=S1(=O)C[C@H](O)[C@H](O)CS1 (stereo in doubt) [Compound 3, (4S,5R)-4,5-dihydroxy-1,2-dithiane-1,1-dioxide]
HK cells, transporter 28; 1 h, pre-incubation (P)
  IC15: 5 µM
HK cells, transporter 28; [1]
  IC50: 60 µM
HeLa Kyoto cells; [2]
  RV50 (concentration needed to lower relative viability by 50%): >1000 µM
HeLa Kyoto cells; [3]
  RV50 (concentration needed to lower relative viability by 50%): >1000 µM

## [O-][S+]1C[C@@H](O)[C@@H](O)CS1 (stereo partly shown) [Compound 2]
HK cells, transporter 28; 1 h, pre-incubation (P)
  IC15: > 50 µM
HK cells, transporter 28; [1]
  IC50: > 100 µM
HK cells, transporter 28; transporter 28 5 μM, pre-incubation (P)
  MIC (concentration needed to reach 15% inhibition): >50 µM
HeLa Kyoto cells; [2]
  RV50 (concentration needed to lower relative viability by 50%): >100 µM

## O=C1O[C@H]2CSS(=O)(=O)C[C@H]2O1 [Compound 11]
HK cells, transporter 28; 1 h, read-out: IC50 (concentration needed to reach 50% inhibition), transporter 28 5 μM, co-incubation (C)
  IC50: 70 ± 20 µM
HK cells, transporter 28; 1 h, co-incubation (C)
  IC15: < 1 µM
HK cells, transporter 28; [4]
  MIC (concentration needed to reach 15% inhibition): <1 µM
HeLa Kyoto cells; [5]
  RV50 (concentration needed to lower relative viability by 50%): > 50 µM
HeLa Kyoto cells; [3]
  RV50 (concentration needed to lower relative viability by 50%): >50 µM
HeLa Kyoto cells; with transporter 31, pre-incubation (P)
  RV50 (concentration needed to lower relative viability by 50%): >20 µM

## O=S1(=O)C=C[C@@H](O)CS1 [Compound 12]
HK cells, transporter 28; 1 h, co-incubation (C)
  IC15: 4.8 µM
HK cells, transporter 28; read-out: IC50 (concentration needed to reach 50% inhibition), transporter 28 5 μM, co-incubation (C)
  IC50: 60 µM
HK cells, transporter 28; [4]
  MIC (concentration needed to reach 15% inhibition): 5 µM
HeLa Kyoto cells; [5]
  RV50 (concentration needed to lower relative viability by 50%): 100 µM
HeLa Kyoto cells; [3]
  RV50 (concentration needed to lower relative viability by 50%): >50 µM
